Reference: publication PMC9492542, “Brain-restricted mTOR inhibition with binary pharmacology” (Nature, 2022)
Where two headings read alike, the source gives them in different places.

Tests used:
476 purified kinases [1] = biological target: 476 purified kinases (Homo sapiens, UniProt Q8IY84); settings: ZLYTE
Protocol: (§1) In vitro kinase inhibition assays were performed by SelectScreen Services (Thermo Fisher Scientific) using either Z’-LYTE (mTOR, Src, Csk, EGFR, HER2 and HGK), Adapta (LRRK2) or LanthaScreen (DDR2) assay format (standardized protocols can be accessed on the SelectScreen website: https://www.thermofisher.com/us/en/home/products-and-services/services/custom-services/screening-and-profiling-services/selectscreen-profiling-service/selectscreen-kinase-profiling-service.html. When indicated, recombinant FKBP12 protein was added to the assay mixture to a final concentration of 10 µM.

476 purified kinases [2] = biological target: 476 purified kinases (Homo sapiens, UniProt Q13177); settings: ZLYTE
Protocol: as §1

476 purified kinases [3] = biological target: 476 purified kinases (Homo sapiens, UniProt Q15139); settings: ZLYTE
Protocol: as §1

476 purified kinases [4] = biological target: 476 purified kinases (Homo sapiens, UniProt Q15759); settings: ZLYTE
Protocol: as §1

476 purified kinases [5] = biological target: 476 purified kinases (Homo sapiens, UniProt O15075); settings: ZLYTE
Protocol: as §1

476 purified kinases [6] = biological target: 476 purified kinases (Homo sapiens, UniProt Q14004)
Protocol: as §1

476 purified kinases [7] = biological target: 476 purified kinases (Homo sapiens, UniProt O00238)
Protocol: as §1

476 purified kinases [8] = biological target: 476 purified kinases (Homo sapiens, UniProt O75716)
Protocol: as §1

476 purified kinases [9] = biological target: 476 purified kinases (Homo sapiens, UniProt Q14012); settings: Adapta
Protocol: as §1

476 purified kinases [10] = biological target: 476 purified kinases (Homo sapiens, UniProt Q9H093)
Protocol: as §1

476 purified kinases [11] = biological target: 476 purified kinases (Homo sapiens, UniProt P37023)
Protocol: as §1

476 purified kinases [12] = biological target: 476 purified kinases (Homo sapiens, UniProt Q9H4B4); settings: ZLYTE
Protocol: as §1

476 purified kinases [13] = biological target: 476 purified kinases (Homo sapiens, UniProt P24941); settings: for CDK2/cyclin A (kinase profiling): ZLYTE
Protocol: as §1

476 purified kinases [14] = biological target: 476 purified kinases (Homo sapiens, UniProt Q8NFD2)
Protocol: as §1

476 purified kinases [15] = biological target: 476 purified kinases (Homo sapiens, UniProt O75460)
Protocol: as §1

476 purified kinases [16] = biological target: 476 purified kinases (Homo sapiens, UniProt Q8NEB9)
Protocol: as §1

476 purified kinases [17] = biological target: 476 purified kinases (Homo sapiens, UniProt Q15208)
Protocol: as §1

476 purified kinases [18] = biological target: 476 purified kinases (Homo sapiens, UniProt P49336)
Protocol: as §1

476 purified kinases [19] = biological target: 476 purified kinases (Homo sapiens, UniProt Q9HBY8); settings: ZLYTE
Protocol: as §1

476 purified kinases [20] = biological target: 476 purified kinases (Homo sapiens, UniProt Q6DT37); settings: ZLYTE
Protocol: as §1

476 purified kinases [21] = biological target: 476 purified kinases (Homo sapiens, UniProt Q8WXR4)
Protocol: as §1

476 purified kinases [22] = biological target: 476 purified kinases (Homo sapiens, UniProt Q07002); settings: ZLYTE
Protocol: as §1

476 purified kinases [23] = biological target: 476 purified kinases (Homo sapiens, UniProt Q13237); settings: ZLYTE
Protocol: as §1

476 purified kinases [24] = biological target: 476 purified kinases (Homo sapiens, UniProt Q9NR20); settings: ZLYTE
Protocol: as §1

476 purified kinases [25] = biological target: 476 purified kinases (Homo sapiens, UniProt P22694)
Protocol: as §1

476 purified kinases [26] = biological target: 476 purified kinases (Homo sapiens, UniProt Q00535); settings: ZLYTE
Protocol: as §1

476 purified kinases [27] = biological target: 476 purified kinases (Homo sapiens, UniProt P50750); settings: Adapta; 10 nM
Protocol: as §1

476 purified kinases [28] = biological target: 476 purified kinases (Homo sapiens, UniProt Q9UBE8)
Protocol: as §1

476 purified kinases [29] = biological target: 476 purified kinases (Homo sapiens, UniProt Q9H2X6); settings: ZLYTE
Protocol: as §1

476 purified kinases [30] = biological target: 476 purified kinases (Homo sapiens, UniProt Q9P1W9); settings: ZLYTE
Protocol: as §1

476 purified kinases [31] = biological target: 476 purified kinases (Homo sapiens, UniProt Q13557); settings: ZLYTE
Protocol: as §1

476 purified kinases [32] = biological target: 476 purified kinases (Homo sapiens, UniProt Q8WTQ7); settings: ZLYTE
Protocol: as §1

476 purified kinases [33] = biological target: 476 purified kinases (Homo sapiens, UniProt P35626); settings: ZLYTE
Protocol: as §1

476 purified kinases [34] = biological target: 476 purified kinases (Homo sapiens, UniProt P06493); settings: ZLYTE
Protocol: as §1

476 purified kinases (Homo sapiens, UniProt Q00535), sequence (Q00535 whole entry): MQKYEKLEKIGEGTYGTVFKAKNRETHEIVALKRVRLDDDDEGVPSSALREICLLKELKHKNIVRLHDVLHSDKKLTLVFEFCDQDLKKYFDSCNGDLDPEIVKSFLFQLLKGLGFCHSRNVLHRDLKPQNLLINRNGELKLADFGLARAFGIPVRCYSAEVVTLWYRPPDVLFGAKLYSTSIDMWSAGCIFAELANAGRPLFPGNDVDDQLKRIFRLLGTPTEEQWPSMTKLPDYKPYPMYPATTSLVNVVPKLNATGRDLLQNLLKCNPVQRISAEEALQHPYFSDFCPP
476 purified kinases (Homo sapiens, UniProt Q9H093), sequence (Q9H093 whole entry): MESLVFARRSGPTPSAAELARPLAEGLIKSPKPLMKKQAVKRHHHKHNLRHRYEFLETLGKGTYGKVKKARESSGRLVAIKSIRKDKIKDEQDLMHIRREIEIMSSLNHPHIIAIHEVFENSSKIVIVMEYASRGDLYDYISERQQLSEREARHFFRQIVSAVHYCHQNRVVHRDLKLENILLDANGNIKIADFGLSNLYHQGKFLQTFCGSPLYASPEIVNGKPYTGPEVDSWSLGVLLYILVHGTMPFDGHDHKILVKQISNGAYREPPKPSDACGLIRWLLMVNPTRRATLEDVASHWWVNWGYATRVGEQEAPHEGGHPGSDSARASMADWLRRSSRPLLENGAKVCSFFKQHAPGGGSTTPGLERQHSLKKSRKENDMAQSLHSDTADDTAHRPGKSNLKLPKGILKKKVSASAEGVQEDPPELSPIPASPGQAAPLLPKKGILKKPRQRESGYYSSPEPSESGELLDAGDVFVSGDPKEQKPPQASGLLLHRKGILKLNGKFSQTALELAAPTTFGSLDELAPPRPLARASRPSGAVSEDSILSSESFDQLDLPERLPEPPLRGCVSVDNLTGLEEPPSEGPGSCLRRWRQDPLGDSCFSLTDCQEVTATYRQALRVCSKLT
476 purified kinases (Homo sapiens, UniProt Q14004), sequence (Q14004 whole entry): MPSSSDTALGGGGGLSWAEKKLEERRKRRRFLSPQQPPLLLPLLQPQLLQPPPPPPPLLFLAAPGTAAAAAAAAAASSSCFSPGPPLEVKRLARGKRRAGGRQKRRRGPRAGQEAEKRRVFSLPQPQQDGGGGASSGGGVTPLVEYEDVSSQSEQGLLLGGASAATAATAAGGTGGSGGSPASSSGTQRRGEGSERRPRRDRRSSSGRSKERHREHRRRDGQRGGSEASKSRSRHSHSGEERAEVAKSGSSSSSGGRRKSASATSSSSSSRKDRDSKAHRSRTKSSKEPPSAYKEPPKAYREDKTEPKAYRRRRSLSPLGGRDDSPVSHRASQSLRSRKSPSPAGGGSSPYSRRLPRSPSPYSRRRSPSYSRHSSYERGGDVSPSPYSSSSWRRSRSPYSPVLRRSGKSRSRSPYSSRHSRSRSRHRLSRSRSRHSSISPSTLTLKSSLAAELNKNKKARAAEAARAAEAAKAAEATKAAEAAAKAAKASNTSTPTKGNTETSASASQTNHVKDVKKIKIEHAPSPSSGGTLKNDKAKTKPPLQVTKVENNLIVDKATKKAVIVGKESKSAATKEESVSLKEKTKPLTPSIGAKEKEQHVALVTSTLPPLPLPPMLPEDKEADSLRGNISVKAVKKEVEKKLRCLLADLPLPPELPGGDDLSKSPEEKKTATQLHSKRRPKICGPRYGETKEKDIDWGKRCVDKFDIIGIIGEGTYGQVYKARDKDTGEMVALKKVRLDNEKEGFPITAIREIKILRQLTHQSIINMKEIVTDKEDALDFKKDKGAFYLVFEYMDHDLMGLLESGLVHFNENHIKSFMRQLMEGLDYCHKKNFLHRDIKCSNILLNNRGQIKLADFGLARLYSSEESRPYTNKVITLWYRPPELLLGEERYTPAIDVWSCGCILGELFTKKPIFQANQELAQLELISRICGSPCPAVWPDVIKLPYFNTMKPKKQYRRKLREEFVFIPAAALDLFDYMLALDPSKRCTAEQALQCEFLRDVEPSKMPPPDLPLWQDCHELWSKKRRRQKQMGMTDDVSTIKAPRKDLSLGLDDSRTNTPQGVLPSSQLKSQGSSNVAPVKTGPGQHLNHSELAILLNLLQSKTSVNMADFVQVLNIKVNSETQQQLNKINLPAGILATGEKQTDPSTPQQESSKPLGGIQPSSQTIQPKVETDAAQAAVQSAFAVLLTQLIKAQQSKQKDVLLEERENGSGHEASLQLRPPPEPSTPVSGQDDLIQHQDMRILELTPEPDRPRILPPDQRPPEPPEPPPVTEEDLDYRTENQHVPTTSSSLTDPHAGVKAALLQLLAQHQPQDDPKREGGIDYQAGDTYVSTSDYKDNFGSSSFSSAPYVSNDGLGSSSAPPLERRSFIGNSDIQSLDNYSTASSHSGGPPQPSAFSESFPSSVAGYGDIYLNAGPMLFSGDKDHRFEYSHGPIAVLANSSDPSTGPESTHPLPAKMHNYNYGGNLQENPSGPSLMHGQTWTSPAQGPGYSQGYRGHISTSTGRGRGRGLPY
476 purified kinases (Homo sapiens, UniProt Q9NR20), sequence (Q9NR20 whole entry): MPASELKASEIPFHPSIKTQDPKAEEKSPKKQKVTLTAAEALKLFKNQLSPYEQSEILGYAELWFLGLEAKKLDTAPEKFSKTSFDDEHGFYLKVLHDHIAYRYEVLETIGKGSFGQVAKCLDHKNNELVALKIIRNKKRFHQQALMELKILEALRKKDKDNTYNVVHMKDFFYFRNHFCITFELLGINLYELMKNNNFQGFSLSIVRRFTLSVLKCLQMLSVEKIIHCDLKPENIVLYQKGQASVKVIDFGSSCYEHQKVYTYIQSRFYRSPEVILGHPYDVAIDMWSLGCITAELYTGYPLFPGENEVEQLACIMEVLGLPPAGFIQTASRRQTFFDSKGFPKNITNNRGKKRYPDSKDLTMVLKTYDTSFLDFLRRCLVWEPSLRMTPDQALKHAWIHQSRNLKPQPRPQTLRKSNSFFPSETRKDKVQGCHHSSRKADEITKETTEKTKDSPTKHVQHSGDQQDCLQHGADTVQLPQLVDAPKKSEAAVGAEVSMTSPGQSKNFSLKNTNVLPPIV
476 purified kinases (Homo sapiens, UniProt Q13557), sequence (Q13557 whole entry): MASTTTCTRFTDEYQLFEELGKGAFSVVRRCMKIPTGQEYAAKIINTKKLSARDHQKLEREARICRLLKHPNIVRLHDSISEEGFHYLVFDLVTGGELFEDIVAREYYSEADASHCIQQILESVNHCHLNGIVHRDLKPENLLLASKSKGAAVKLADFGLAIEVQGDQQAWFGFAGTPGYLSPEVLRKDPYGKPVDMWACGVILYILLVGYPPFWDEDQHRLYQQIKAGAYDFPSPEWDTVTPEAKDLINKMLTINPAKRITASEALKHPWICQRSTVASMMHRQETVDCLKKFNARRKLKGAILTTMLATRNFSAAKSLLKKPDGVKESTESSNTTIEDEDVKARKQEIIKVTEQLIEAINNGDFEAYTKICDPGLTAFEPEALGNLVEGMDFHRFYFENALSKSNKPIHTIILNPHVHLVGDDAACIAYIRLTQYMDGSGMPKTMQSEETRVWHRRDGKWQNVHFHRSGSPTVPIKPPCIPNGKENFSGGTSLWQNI
476 purified kinases (Homo sapiens, UniProt Q9H2X6), sequence (Q9H2X6 whole entry): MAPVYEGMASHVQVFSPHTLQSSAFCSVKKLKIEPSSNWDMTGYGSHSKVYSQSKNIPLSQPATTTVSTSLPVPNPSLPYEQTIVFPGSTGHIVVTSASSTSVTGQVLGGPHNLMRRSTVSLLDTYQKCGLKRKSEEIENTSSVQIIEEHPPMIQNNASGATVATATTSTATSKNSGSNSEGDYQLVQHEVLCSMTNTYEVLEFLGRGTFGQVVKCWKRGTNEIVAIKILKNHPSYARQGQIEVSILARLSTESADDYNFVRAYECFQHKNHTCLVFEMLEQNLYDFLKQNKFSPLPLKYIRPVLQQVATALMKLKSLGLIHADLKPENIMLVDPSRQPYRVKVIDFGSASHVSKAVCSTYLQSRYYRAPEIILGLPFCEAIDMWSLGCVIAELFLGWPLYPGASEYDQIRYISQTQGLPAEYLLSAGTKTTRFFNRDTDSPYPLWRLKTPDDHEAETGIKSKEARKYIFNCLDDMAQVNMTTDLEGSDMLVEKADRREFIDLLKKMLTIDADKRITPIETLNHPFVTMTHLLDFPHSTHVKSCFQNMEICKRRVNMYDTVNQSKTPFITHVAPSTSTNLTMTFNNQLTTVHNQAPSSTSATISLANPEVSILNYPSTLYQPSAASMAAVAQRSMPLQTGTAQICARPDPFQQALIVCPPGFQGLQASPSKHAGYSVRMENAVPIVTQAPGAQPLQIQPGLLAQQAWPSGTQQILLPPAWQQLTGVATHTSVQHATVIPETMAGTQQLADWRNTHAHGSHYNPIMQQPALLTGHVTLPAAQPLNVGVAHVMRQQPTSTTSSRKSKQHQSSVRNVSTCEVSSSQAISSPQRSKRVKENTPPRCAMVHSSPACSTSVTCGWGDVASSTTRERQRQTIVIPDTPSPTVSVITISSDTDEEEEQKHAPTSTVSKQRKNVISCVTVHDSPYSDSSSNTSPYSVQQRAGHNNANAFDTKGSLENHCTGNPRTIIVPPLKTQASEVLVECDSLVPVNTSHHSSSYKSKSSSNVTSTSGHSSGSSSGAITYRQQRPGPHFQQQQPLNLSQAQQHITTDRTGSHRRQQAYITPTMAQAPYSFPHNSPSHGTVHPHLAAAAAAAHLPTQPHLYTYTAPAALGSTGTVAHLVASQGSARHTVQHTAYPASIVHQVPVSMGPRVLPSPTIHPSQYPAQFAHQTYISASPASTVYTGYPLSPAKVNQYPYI
476 purified kinases (Homo sapiens, UniProt O75716), sequence (O75716 whole entry): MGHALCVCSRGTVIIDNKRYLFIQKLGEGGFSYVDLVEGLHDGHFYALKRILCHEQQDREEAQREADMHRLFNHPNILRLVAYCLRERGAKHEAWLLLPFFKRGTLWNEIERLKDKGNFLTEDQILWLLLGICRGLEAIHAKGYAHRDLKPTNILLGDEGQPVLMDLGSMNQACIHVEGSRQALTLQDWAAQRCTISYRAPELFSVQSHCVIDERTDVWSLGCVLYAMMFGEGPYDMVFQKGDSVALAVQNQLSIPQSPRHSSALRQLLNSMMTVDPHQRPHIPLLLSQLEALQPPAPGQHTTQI

## Cc1nc(Nc2ncc(C(=O)Nc3c(C)cccc3Cl)s2)cc(N2CCN(CCO)CC2)n1 [Dasatinib]
476 purified kinases [1]; 10 nM
  NIM1K (kinase profiling): 7
476 purified kinases [1]; 10 nM + 10 µM FKBP12
  NIM1K (kinase profiling): 17
476 purified kinases [2]; 10 nM
  PAK2 (PAK65) (kinase profiling): 11
476 purified kinases [2]; 10 nM + 10 µM FKBP12
  PAK2 (PAK65) (kinase profiling): 11
476 purified kinases [3]; 10 nM
  PRKD1 (PKC mu) (kinase profiling): 10
476 purified kinases [3]; 10 nM + 10 µM FKBP12
  PRKD1 (PKC mu) (kinase profiling): 12
476 purified kinases [4]; 10 nM
  MAPK11 (p38 beta) (kinase profiling): 8
476 purified kinases [4]; 10 nM + 10 µM FKBP12
  MAPK11 (p38 beta) (kinase profiling): 9
476 purified kinases [5]; 10 nM
  DCAMKL1 (DCLK1) (kinase profiling): 1
476 purified kinases [5]; 10 nM + 10 µM FKBP12
  DCAMKL1 (DCLK1) (kinase profiling): 4
476 purified kinases [6]; 10 nM compound
  CDK13/cyclin K (LanthaScreen Binding): 4
476 purified kinases [6]; 10 nM compound + 10 µM FKBP12
  CDK13/cyclin K (LanthaScreen Binding): -3
476 purified kinases [7]; 10 nM compound
  BMPR1B (ALK6) (LanthaScreen Binding): 7
476 purified kinases [7]; 10 nM compound + 10 µM FKBP12
  BMPR1B (ALK6) (LanthaScreen Binding): -9
476 purified kinases [8]; 10 nM compound
  STK16 (PKL12) (LanthaScreen Binding): -1
476 purified kinases [8]; 10 nM compound + 10 µM FKBP12
  STK16 (PKL12) (LanthaScreen Binding): -1
476 purified kinases [9]; 10 nM
  CAMK1 (CaMK1) (kinase profiling): -14
476 purified kinases [9]; 10 nM + 10 µM FKBP12
  CAMK1 (CaMK1) (kinase profiling): 28
476 purified kinases [10]; 10 nM compound
  NUAK2 (LanthaScreen Binding): 7
476 purified kinases [10]; 10 nM compound + 10 µM FKBP12
  NUAK2 (LanthaScreen Binding): 0
476 purified kinases [11]; 10 nM compound
  ACVRL1 (ALK1) (LanthaScreen Binding): 16
476 purified kinases [11]; 10 nM compound + 10 µM FKBP12
  ACVRL1 (ALK1) (LanthaScreen Binding): 0
476 purified kinases [12]; 10 nM
  PLK3 (kinase profiling): -4
476 purified kinases [12]; 10 nM + 10 µM FKBP12
  PLK3 (kinase profiling): -21
476 purified kinases [13]; 10 nM compound
  CDK2/cyclin A1 (LanthaScreen Binding): 1
  CDK2/cyclin E1 (LanthaScreen Binding): 0
  CDK2/cyclin O (LanthaScreen Binding): 5
476 purified kinases [13]; 10 nM compound + 10 µM FKBP12
  CDK2/cyclin A1 (LanthaScreen Binding): 1
  CDK2/cyclin E1 (LanthaScreen Binding): -7
  CDK2/cyclin O (LanthaScreen Binding): 12
476 purified kinases [13]; 10 nM
  CDK2/cyclin A (kinase profiling): 3
476 purified kinases [13]; 10 nM + 10 µM FKBP12
  CDK2/cyclin A (kinase profiling): 6
476 purified kinases [14]; 10 nM compound
  ANKK1 (LanthaScreen Binding): 1
476 purified kinases [14]; 10 nM compound + 10 µM FKBP12
  ANKK1 (LanthaScreen Binding): 11
476 purified kinases [15]; 10 nM compound
  ERN1 (LanthaScreen Binding): 0
476 purified kinases [15]; 10 nM compound + 10 µM FKBP12
  ERN1 (LanthaScreen Binding): 0
476 purified kinases [16]; 10 nM compound
  PIK3C3 (hVPS34) (Adapta): 2
476 purified kinases [16]; 10 nM compound + 10 µM FKBP12
  PIK3C3 (hVPS34) (Adapta): -1
476 purified kinases [17]; 10 nM compound
  STK38 (NDR) (LanthaScreen Binding): 0
476 purified kinases [17]; 10 nM compound + 10 µM FKBP12
  STK38 (NDR) (LanthaScreen Binding): 2
476 purified kinases [18]; 10 nM compound
  CDK8/cyclin C (LanthaScreen Binding): 2
476 purified kinases [18]; 10 nM compound + 10 µM FKBP12
  CDK8/cyclin C (LanthaScreen Binding): 5
476 purified kinases [19]; 10 nM
  SGK2 (kinase profiling): 4
476 purified kinases [19]; 10 nM + 10 µM FKBP12
  SGK2 (kinase profiling): 3
476 purified kinases [20]; 10 nM
  CDC42 BPG (MRCKG) (kinase profiling): 7
476 purified kinases [20]; 10 nM + 10 µM FKBP12
  CDC42 BPG (MRCKG) (kinase profiling): -1
476 purified kinases [21]; 10 nM compound
  MYO3B (MYO3 beta) (LanthaScreen Binding): 3
476 purified kinases [21]; 10 nM compound + 10 µM FKBP12
  MYO3B (MYO3 beta) (LanthaScreen Binding): 8
476 purified kinases [22]; 10 nM
  CDK18/cyclin Y (kinase profiling): 6
476 purified kinases [22]; 10 nM + 10 µM FKBP12
  CDK18/cyclin Y (kinase profiling): 9
476 purified kinases [23]; 10 nM
  PRKG2 (PKG2) (kinase profiling): 1
476 purified kinases [23]; 10 nM + 10 µM FKBP12
  PRKG2 (PKG2) (kinase profiling): -7
476 purified kinases [24]; 10 nM
  DYRK4 (kinase profiling): 1
476 purified kinases [24]; 10 nM + 10 µM FKBP12
  DYRK4 (kinase profiling): 7
476 purified kinases [25]; 10 nM compound
  PRKACB (PRKAC beta) (LanthaScreen Binding): -9
476 purified kinases [25]; 10 nM compound + 10 µM FKBP12
  PRKACB (PRKAC beta) (LanthaScreen Binding): -3
476 purified kinases [26]; 10 nM
  CDK5/p25 (kinase profiling): 2
  CDK5/p35 (kinase profiling): 4
476 purified kinases [26]; 10 nM + 10 µM FKBP12
  CDK5/p25 (kinase profiling): 2
  CDK5/p35 (kinase profiling): 2
476 purified kinases [27]
  CDK9/cyclin T1 (kinase profiling): 8
476 purified kinases [28]; 10 nM compound
  NLK (LanthaScreen Binding): 6
476 purified kinases [28]; 10 nM compound + 10 µM FKBP12
  NLK (LanthaScreen Binding): -1
476 purified kinases [29]; 10 nM
  HIPK2 (kinase profiling): 8
476 purified kinases [29]; 10 nM + 10 µM FKBP12
  HIPK2 (kinase profiling): 11
476 purified kinases [30]; 10 nM
  PIM2 (kinase profiling): -2
476 purified kinases [30]; 10 nM + 10 µM FKBP12
  PIM2 (kinase profiling): -9
476 purified kinases [31]; 10 nM
  CAMK2D (CaMKII delta) (kinase profiling): 6
476 purified kinases [31]; 10 nM + 10 µM FKBP12
  CAMK2D (CaMKII delta) (kinase profiling): 11
476 purified kinases [32]; 10 nM
  GRK7 (kinase profiling): 3
476 purified kinases [32]; 10 nM + 10 µM FKBP12
  GRK7 (kinase profiling): -1
476 purified kinases [33]; 10 nM
  ADRBK2 (GRK3) (kinase profiling): -2
476 purified kinases [33]; 10 nM + 10 µM FKBP12
  ADRBK2 (GRK3) (kinase profiling): 8
476 purified kinases [34]; 10 nM
  CDK1/cyclin B (kinase profiling): 3
476 purified kinases [34]; 10 nM + 10 µM FKBP12
  CDK1/cyclin B (kinase profiling): 3
